According to patent publication US20230398237A1 (priority 2020, published 2023):

Experiments:
[1] = test system: organic anion transporter; experiment: Probenecid inhibition studies (renal clearance efficiency); assay type: in vivo, BALB/c mice; conditions: 200 mg/kg probenecid i.p., urine at 30 min p.i.
Procedure: BALB/c mice were pre-treated by intraperitoneal injection of 200 mg/kg probenecid and control group were treated by PBS. […] The mice were anesthetized under 3% isoflurane for 30 min under steady breath rate of 7-8 times per 15 sec. After 30 min, the urine was collected from bladder and quantified by fluorescence.

[2] = Clearance efficiencies in urine and feces; conditions: within 24 h post intravenous injection
From the text: Then, the urine and feces were quantified based on fluorescence and each standard curve of conjugates were built in control urine and control feces.

[3] = test system: serum proteins (fetal bovine serum); experiment: Serum protein binding test by agarose gel electrophoresis; assay type: in vitro ADME; conditions: 10% FBS, 37° C., 30 min
Procedure: Coomassie brilliant blue 250 (CBB) was used to stain FBS. Color pictures of CBB-stained protein were inserted.
All these samples were analyzed using 2% agarose gel electrophoresis. […] The fluorescence images were taken by Carestream In-vivo FX Pro imaging system under 790 nm/830 nm. Non-invasive fluorescence imaging of body with ICG-PEG conjugates and ex vivo images

[4] = before elimination through the liver; cited from earlier work

clearance percentage in feces [2] [% ID]	serum protein binding [3]	Compound	effect of probenecid on renal clearance efficiency [1]	time retained in normal renal parenchyma [4] [min]
–	–	FITC-inulin	no significant difference	–
85.3	completely binds protein	CC1(C)C(/C=C/C=C/C=C/C=C2\N(CCCCS(=O)(=O)O)c3ccc4ccccc4c3C2(C)C)=[N+](CCCCS(=O)(=O)[O-])c2ccc3ccccc3c21 [ICG, Indocyanine green]	–	< 15
